{"source": "the supplement of paper PMC10307832", "assay_in_all_cases": "relative viability (nuclei count vs DMSO), 5 days (fraction); higher = more cells survive", "key": {"[1]": {"tested_on": "NCI-H1793", "procedure,_shortened": "(§1)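 Medians of duplicate plates are given as relative viability. That measure is the nuclei count in treated wells divided by the count in vehicle wells. Counts were taken on 4× images of lung cancer cell lines in 1536-well plates, 5 days after pin-tool dosing the day after seeding with one drug alone or a fixed anchor-drug dose plus five library-drug doses (not always all listed) in √10 steps.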"}, "[2]": {"tested_on": "SW 1573", "procedure,_shortened": "as §1"}, "[3]": {"tested_on": "NCI-H460", "procedure,_shortened": "as §1"}, "[4]": {"tested_on": "LCLC-103H", "procedure,_shortened": "as §1"}, "[5]": {"tested_on": "PC-3 [JPC-3]", "procedure,_shortened": "as §1"}, "[6]": {"tested_on": "HCC-44", "procedure,_shortened": "as §1"}, "[7]": {"tested_on": "NCI-H838", "procedure,_shortened": "as §1"}, "[8]": {"tested_on": "LCLC-97TM1", "procedure,_shortened": "as §1"}, "[9]": {"tested_on": "NCI-H1650", "procedure,_shortened": "as §1"}, "[10]": {"tested_on": "NCI-H1944", "procedure,_shortened": "as §1"}, "[11]": {"tested_on": "A-427", "procedure,_shortened": "as §1"}}}
{"smiles": "CC1(C)CCC(c2ccc(Cl)cc2)=C(CN2CCN(c3ccc(C(=O)NS(=O)(=O)c4ccc(N[C@H](CCN5CCOCC5)CSc5ccccc5)c(S(=O)(=O)C(F)(F)F)c4)cc3)CC2)C1", "note": "[Navitoclax] + Nc1ncn([C@H]2C[C@H](O)[C@@H](CO)O2)c(=O)n1 [Decitabine] (partner 2 µM)", "values": [{"measurement": "relative viability", "setting": "[1]; first compound 0.005 µM", "value": 0.448}, {"measurement": "relative viability", "setting": "[1]; first compound 0.01581 µM", "value": 0.595}, {"measurement": "relative viability", "setting": "[1]; first compound 0.1581 µM", "value": 0.49}, {"measurement": "relative viability", "setting": "[1]; first compound 0.5 µM", "value": 0.345}, {"measurement": "relative viability", "setting": "[2]; first compound 0.005 µM", "value": 0.498}, {"measurement": "relative viability", "setting": "[2]; first compound 0.01581 µM", "value": 0.683}, {"measurement": "relative viability", "setting": "[2]; first compound 0.05 µM", "value": 0.387}, {"measurement": "relative viability", "setting": "[2]; first compound 0.1581 µM", "value": 0.386}, {"measurement": "relative viability", "setting": "[2]; first compound 0.5 µM", "value": 0.364}, {"measurement": "relative viability", "setting": "[3]; first compound 0.005 µM", "value": 0.481}, {"measurement": "relative viability", "setting": "[3]; first compound 0.01581 µM", "value": 0.523}, {"measurement": "relative viability", "setting": "[3]; first compound 0.05 µM", "value": 0.234}, {"measurement": "relative viability", "setting": "[3]; first compound 0.1581 µM", "value": 0.411}, {"measurement": "relative viability", "setting": "[3]; first compound 0.5 µM", "value": 0.444}, {"measurement": "relative viability", "setting": "[4]; first compound 0.005 µM", "value": 0.701}, {"measurement": "relative viability", "setting": "[4]; first compound 0.01581 µM", "value": 0.879}, {"measurement": "relative viability", "setting": "[4]; first compound 0.05 µM", "value": 0.764}, {"measurement": "relative viability", "setting": "[4]; first compound 0.1581 µM", "value": 0.703}, {"measurement": "relative viability", "setting": "[4]; first compound 0.5 µM", "value": 0.698}, {"measurement": "relative viability", "setting": "[5]; first compound 0.005 µM", "value": 0.922}, {"measurement": "relative viability", "setting": "[5]; first compound 0.01581 µM", "value": 0.876}, {"measurement": "relative viability", "setting": "[5]; first compound 0.05 µM", "value": 0.912}, {"measurement": "relative viability", "setting": "[5]; first compound 0.1581 µM", "value": 0.758}, {"measurement": "relative viability", "setting": "[5]; first compound 0.5 µM", "value": 0.653}, {"measurement": "relative viability", "setting": "[6]; first compound 0.005 µM", "value": 0.921}, {"measurement": "relative viability", "setting": "[6]; first compound 0.01581 µM", "value": 0.867}, {"measurement": "relative viability", "setting": "[6]; first compound 0.05 µM", "value": 0.903}, {"measurement": "relative viability", "setting": "[6]; first compound 0.1581 µM", "value": 0.861}, {"measurement": "relative viability", "setting": "[6]; first compound 0.5 µM", "value": 0.898}, {"measurement": "relative viability", "setting": "[7]; first compound 0.005 µM", "value": 0.457}, {"measurement": "relative viability", "setting": "[7]; first compound 0.01581 µM", "value": 0.506}, {"measurement": "relative viability", "setting": "[7]; first compound 0.05 µM", "value": 0.47}, {"measurement": "relative viability", "setting": "[7]; first compound 0.1581 µM", "value": 0.423}, {"measurement": "relative viability", "setting": "[7]; first compound 0.5 µM", "value": 0.46}, {"measurement": "relative viability", "setting": "[8]; first compound 0.005 µM", "value": 0.229}, {"measurement": "relative viability", "setting": "[8]; first compound 0.01581 µM", "value": 0.268}, {"measurement": "relative viability", "setting": "[8]; first compound 0.05 µM", "value": 0.224}, {"measurement": "relative viability", "setting": "[8]; first compound 0.1581 µM", "value": 0.217}, {"measurement": "relative viability", "setting": "[8]; first compound 0.5 µM", "value": 0.271}, {"measurement": "relative viability", "setting": "[9]; first compound 0.005 µM", "value": 0.43}, {"measurement": "relative viability", "setting": "[9]; first compound 0.01581 µM", "value": 0.424}, {"measurement": "relative viability", "setting": "[9]; first compound 0.05 µM", "value": 0.399}, {"measurement": "relative viability", "setting": "[9]; first compound 0.1581 µM", "value": 0.364}, {"measurement": "relative viability", "setting": "[9]; first compound 0.5 µM", "value": 0.334}, {"measurement": "relative viability", "setting": "[10]; first compound 0.005 µM", "value": 0.466}, {"measurement": "relative viability", "setting": "[10]; first compound 0.01581 µM", "value": 0.455}, {"measurement": "relative viability", "setting": "[10]; first compound 0.1581 µM", "value": 0.384}, {"measurement": "relative viability", "setting": "[10]; first compound 0.5 µM", "value": 0.396}, {"measurement": "relative viability", "setting": "[11]; first compound 0.005 µM", "value": 0.607}, {"measurement": "relative viability", "setting": "[11]; first compound 0.01581 µM", "value": 0.534}, {"measurement": "relative viability", "setting": "[11]; first compound 0.05 µM", "value": 0.517}, {"measurement": "relative viability", "setting": "[11]; first compound 0.1581 µM", "value": 0.521}, {"measurement": "relative viability", "setting": "[11]; first compound 0.5 µM", "value": 0.466}]}
